The source of these data is article PMC7563551, “The Cytokine IL-1β and Piperine Complex Surveyed by Experimental and Computational Molecular Biophysics” (Biomolecules, 2020).

The target in this experiment is T1, IL-1β (interleukin-1 beta) (Homo sapiens, UniProt P01584).
T1 construct: gene IL1B; 153 residues, single Trp120 and extinction coefficient 11,460 fit the human mature chain; docking model 1ITB chain A
Briefly: Trp120 fluorescence quenching titration, interaction density function with Scatchard plot. The experiment is classed as binding. The following applies: read-out: Kb.

T1 sequence (P01584 117-269): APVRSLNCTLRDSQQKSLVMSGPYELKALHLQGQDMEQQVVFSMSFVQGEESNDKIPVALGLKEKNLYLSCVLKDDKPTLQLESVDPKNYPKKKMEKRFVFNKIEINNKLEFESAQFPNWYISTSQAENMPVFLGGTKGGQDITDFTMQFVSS

In the case of `O=C(/C=C/C=C/c1ccc2c(c1)OCO2)N1CCCCC1` [piperine], the Kd is 6.99 µM.
